Data as given in patent US6355799B1, “Substituted benzene compounds, process for their preparation, and herbicidal and defoliant compositions containing them” (ISK Americas Incorporated, priority 1997, dated 2002).

Assays:
Type in all cases: in vivo
[1] = test system: redroot pigweed (Amaranthus retroflexus, AMARE); experiment: Pre-emerge test, greenhouse herbicide activity screening; conditions: pre-emerge, 14 days after application, scale 0-100
Procedure, shortened: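 Plants grown in 10 cm pots of sandy loam mix received acetone-dissolved compounds through a moving flat-fan nozzle. Doses ranged from 15 to 1000 g ai/ha. Pre-emerge pots were seeded one day earlier, post-emerge pots 8–21 days earlier. Fourteen days on, each pot was graded 0–100 for damage.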

[2] = test system: barnyardgrass (Echinochloa crus-galli, ECHCG); experiment: as above; conditions: pre-emerge, 14 days after application, scale 0-100
Procedure, shortened: (§1)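 Herbicidal damage is scored 0 (none) to 100 (complete plant death) two weeks after a simulated field spray. Rates span 15–1000 g ai/ha, delivered in acetone at 187 l/ha. For post-emergence treatments, plants have 2–3 leaves and the spray carries 0.25% v/v non-ionic surfactant.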

[3] = test system: green foxtail (Setaria viridis, SETVI); experiment: as above; conditions: pre-emerge, 14 days after application, scale 0-100
Procedure, shortened: as §1

[4] = test system: ivyleaf morningglory (Ipomoea hederacea, IPOHE); experiment: as above; conditions: pre-emerge, 14 days after application, scale 0-100
Procedure, shortened: as §1

[5] = test system: johnsongrass (Sorghum halepense, SORHA); experiment: as above; conditions: pre-emerge, 14 days after application, scale 0-100
Procedure, shortened: as §1

[6] = test system: lambsquarters (Chenopodium album, CHEAL); experiment: as above; conditions: pre-emerge, 14 days after application, scale 0-100
Procedure, shortened: as §1

[7] = test system: large crabgrass (Digitaria sanguinalis, DIGSA); experiment: as above; conditions: pre-emerge, 14 days after application, scale 0-100
Procedure, shortened: as §1

[8] = test system: sicklepod (Cassia obtusifolia, CASOB); experiment: as above; conditions: pre-emerge, 14 days after application, scale 0-100
Procedure, shortened: as §1

[9] = test system: velvetleaf (Abutilon theophrasti, ABUTH); experiment: as above; conditions: pre-emerge, 14 days after application, scale 0-100
Procedure, shortened: as §1

[10] = test system: field corn (Zea mays L., var. Dekalb 535, CORN); experiment: Pre-emerge test, crop safety; conditions: pre-emerge, 14 days after application, scale 0-100
Procedure, shortened: (§2)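 Fourteen days after spraying, crop and weed injury was graded visually from 0, no effect, to 100, every plant dead. Test substances were dissolved in acetone and applied at 15–1000 g ai/ha with a flat-fan nozzle. Application was either pre-emergence, one day after sowing, or post-emergence at the 2–3 leaf stage.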

[11] = test system: upland rice (Oryza sp., var. Tebonnet, RICE); experiment: Pre-emerge test, crop safety; conditions: pre-emerge, 14 days after application, scale 0-100
Procedure, shortened: as §2

[12] = test system: barnyardgrass (Echinochloa crus-galli, ECHCG); experiment: Post-emerge test, greenhouse herbicide activity screening; conditions: post-emerge, 14 days after application, rating scale 0-100
Procedure, shortened: (§3)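 Rating: 0–100 visual injury, 14 DAA. Application: acetone, 187 l/ha, 15–1000 g ai/ha, flat-fan track sprayer with nozzle 40–45 cm above soil or canopy. Post-emerge runs used 0.25% v/v surfactant on 2–3 leaf plants.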

[13] = test system: green foxtail (Setaria viridis, SETVI); experiment: as above; conditions: post-emerge, 14 days after application, rating scale 0-100
Procedure, shortened: as §3

[14] = test system: ivyleaf morningglory (Ipomoea hederacea, IPOHE); experiment: as above; conditions: post-emerge, 14 days after application, rating scale 0-100
Procedure, shortened: as §3

[15] = test system: johnsongrass (Sorghum halepense, SORHA); experiment: as above; conditions: post-emerge, 14 days after application, rating scale 0-100
Procedure, shortened: as §3

[16] = test system: lambsquarters (Chenopodium album, CHEAL); experiment: as above; conditions: post-emerge, 14 days after application, rating scale 0-100
Procedure, shortened: as §3

[17] = test system: large crabgrass (Digitaria sanguinalis, DIGSA); experiment: as above; conditions: post-emerge, 14 days after application, rating scale 0-100
Procedure, shortened: as §3

[18] = test system: redroot pigweed (Amaranthus retroflexus, AMARE); experiment: as above; conditions: post-emerge, 14 days after application, rating scale 0-100
Procedure, shortened: as §3

[19] = test system: sicklepod (Cassia obtusifolia, CASOB); experiment: as above; conditions: post-emerge, 14 days after application, rating scale 0-100
Procedure, shortened: as §3

[20] = test system: velvetleaf (Abutilon theophrasti, ABUTH); experiment: as above; conditions: post-emerge, 14 days after application, rating scale 0-100
Procedure, shortened: as §3

[21] = test system: field corn (Zea mays L., var. Dekalb 535, CORN); experiment: Post-emerge test, crop safety; conditions: post-emerge, 14 days after application, rating scale 0-100
Procedure, shortened: as §1

[22] = test system: upland rice (Oryza sp., var. Tebonnet, RICE); experiment: Post-emerge test, crop safety; conditions: post-emerge, 14 days after application, rating scale 0-100
Procedure, shortened: as §1

SMILES: CCOC(=O)CSCC(=O)Nc1c(OC)c(Cl)cc(F)c1-n1c(=O)cc(C(F)(F)F)n(C)c1=O [2-170]
- phytotoxicity rating AMARE ([1]; 63 g ai/ha): 70
- phytotoxicity rating AMARE ([1]; 250 g ai/ha): 100
- phytotoxicity rating ECHCG ([2]; 63 g ai/ha): 0
- phytotoxicity rating ECHCG ([2]; 250 g ai/ha): 50
- phytotoxicity rating SETVI ([3]; 63 g ai/ha): 60
- phytotoxicity rating SETVI ([3]; 250 g ai/ha): 90
- phytotoxicity rating IPOHE ([4]; 63 g ai/ha): 40
- phytotoxicity rating IPOHE ([4]; 250 g ai/ha): 70
- phytotoxicity rating SORHA ([5]; 63 g ai/ha): 20
- phytotoxicity rating SORHA ([5]; 250 g ai/ha): 80
- phytotoxicity rating CHEAL ([6]; 63 g ai/ha): 100
- phytotoxicity rating CHEAL ([6]; 250 g ai/ha): 100
- phytotoxicity rating DIGSA ([7]; 63 g ai/ha): 30
- phytotoxicity rating DIGSA ([7]; 250 g ai/ha): 90
- phytotoxicity rating CASOB ([8]; 63 g ai/ha): 30
- phytotoxicity rating CASOB ([8]; 250 g ai/ha): 60
- phytotoxicity rating ABUTH ([9]; 63 g ai/ha): 90
- phytotoxicity rating ABUTH ([9]; 250 g ai/ha): 100
- phytotoxicity rating CORN (crop damage) ([10]; 63 g ai/ha): 10
- phytotoxicity rating CORN (crop damage) ([10]; 250 g ai/ha): 15
- phytotoxicity rating RICE (crop damage) ([11]; 63 g ai/ha): 10
- phytotoxicity rating RICE (crop damage) ([11]; 250 g ai/ha): 0
- ECHCG phytotoxicity rating ([12]; 63 g ai/ha): 0
- ECHCG phytotoxicity rating ([12]; 250 g ai/ha): 20
- SETVI phytotoxicity rating ([13]; 63 g ai/ha): 10
- SETVI phytotoxicity rating ([13]; 250 g ai/ha): 20
- IPOHE phytotoxicity rating ([14]; 63 g ai/ha): 50
- IPOHE phytotoxicity rating ([14]; 250 g ai/ha): 95
- SORHA phytotoxicity rating ([15]; 63 g ai/ha): 0
- SORHA phytotoxicity rating ([15]; 250 g ai/ha): 10
- CHEAL phytotoxicity rating ([16]; 63 g ai/ha): 60
- CHEAL phytotoxicity rating ([16]; 250 g ai/ha): 50
- DIGSA phytotoxicity rating ([17]; 63 g ai/ha): 0
- DIGSA phytotoxicity rating ([17]; 250 g ai/ha): 30
- AMARE phytotoxicity rating ([18]; 63 g ai/ha): 20
- AMARE phytotoxicity rating ([18]; 250 g ai/ha): 30
- CASOB phytotoxicity rating ([19]; 63 g ai/ha): 10
- CASOB phytotoxicity rating ([19]; 250 g ai/ha): 60
- ABUTH phytotoxicity rating ([20]; 63 g ai/ha): 35
- ABUTH phytotoxicity rating ([20]; 250 g ai/ha): 90
- CORN phytotoxicity rating (crop damage) ([21]; 63 g ai/ha): 5
- CORN phytotoxicity rating (crop damage) ([21]; 250 g ai/ha): 15
- RICE phytotoxicity rating (crop damage) ([22]; 63 g ai/ha): 5
- RICE phytotoxicity rating (crop damage) ([22]; 250 g ai/ha): 10

SMILES: CCOC(=O)C(C)SCC(=O)Nc1c(OC)c(Cl)cc(F)c1-n1c(=O)cc(C(F)(F)F)n(C)c1=O (stereo not shown) [2-171]
- phytotoxicity rating AMARE ([1]; 63 g ai/ha): 50
- phytotoxicity rating AMARE ([1]; 250 g ai/ha): 100
- phytotoxicity rating ECHCG ([2]; 63 g ai/ha): 0
- phytotoxicity rating ECHCG ([2]; 250 g ai/ha): 10
- phytotoxicity rating SETVI ([3]; 63 g ai/ha): 30
- phytotoxicity rating SETVI ([3]; 250 g ai/ha): 90
- phytotoxicity rating IPOHE ([4]; 63 g ai/ha): 10
- phytotoxicity rating IPOHE ([4]; 250 g ai/ha): 60
- phytotoxicity rating SORHA ([5]; 63 g ai/ha): 10
- phytotoxicity rating SORHA ([5]; 250 g ai/ha): 30
- phytotoxicity rating CHEAL ([6]; 63 g ai/ha): 70
- phytotoxicity rating CHEAL ([6]; 250 g ai/ha): 100
- phytotoxicity rating DIGSA ([7]; 63 g ai/ha): 20
- phytotoxicity rating DIGSA ([7]; 250 g ai/ha): 80
- phytotoxicity rating CASOB ([8]; 63 g ai/ha): 10
- phytotoxicity rating CASOB ([8]; 250 g ai/ha): 30
- phytotoxicity rating ABUTH ([9]; 63 g ai/ha): 90
- phytotoxicity rating ABUTH ([9]; 250 g ai/ha): 100
- phytotoxicity rating CORN (crop damage) ([10]; 63 g ai/ha): 0
- phytotoxicity rating CORN (crop damage) ([10]; 250 g ai/ha): 0
- phytotoxicity rating RICE (crop damage) ([11]; 63 g ai/ha): 0
- phytotoxicity rating RICE (crop damage) ([11]; 250 g ai/ha): 10
- ECHCG phytotoxicity rating ([12]; 63 g ai/ha): 0
- ECHCG phytotoxicity rating ([12]; 250 g ai/ha): 0
- SETVI phytotoxicity rating ([13]; 63 g ai/ha): 0
- SETVI phytotoxicity rating ([13]; 250 g ai/ha): 10
- IPOHE phytotoxicity rating ([14]; 63 g ai/ha): 60
- IPOHE phytotoxicity rating ([14]; 250 g ai/ha): 100
- SORHA phytotoxicity rating ([15]; 63 g ai/ha): 0
- SORHA phytotoxicity rating ([15]; 250 g ai/ha): 10
- CHEAL phytotoxicity rating ([16]; 63 g ai/ha): 40
- CHEAL phytotoxicity rating ([16]; 250 g ai/ha): 90
- DIGSA phytotoxicity rating ([17]; 63 g ai/ha): 0
- DIGSA phytotoxicity rating ([17]; 250 g ai/ha): 10
- AMARE phytotoxicity rating ([18]; 63 g ai/ha): 30
- AMARE phytotoxicity rating ([18]; 250 g ai/ha): 50
- CASOB phytotoxicity rating ([19]; 63 g ai/ha): 30
- CASOB phytotoxicity rating ([19]; 250 g ai/ha): 40
- ABUTH phytotoxicity rating ([20]; 63 g ai/ha): 60
- ABUTH phytotoxicity rating ([20]; 250 g ai/ha): 100
- CORN phytotoxicity rating (crop damage) ([21]; 63 g ai/ha): 0
- CORN phytotoxicity rating (crop damage) ([21]; 250 g ai/ha): 10
- RICE phytotoxicity rating (crop damage) ([22]; 63 g ai/ha): 0
- RICE phytotoxicity rating (crop damage) ([22]; 250 g ai/ha): 10
